This note sets out measurements from PubChem BioAssay (NCI).

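Exposure lasted 48 hours, with cells grown in 96-well plates and compounds tested at five concentrations. TGI: total growth inhibition.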

Assay in all cases: NCI tumour cell line growth inhibition, 48 h
In assay [1] the test system is 786-0 renal.
The subject of assay [2] is COLO 205 colon.
Assay [3] has as its system HCC-2998 colon.
The subject of assay [4] is HCT-116 colon.
Assay [5] has as its system HL-60(TB) leukemia.
The subject of assay [6] is HOP-62 NSCLC.
In assay [7] the test system is IGROV1 ovarian.
Assay [8] concerns KM12 colon.
Assay [9] concerns LOX IMVI melanoma.
Assay [10] deals with M14 melanoma.
Assay [11] relates to MDA-N.
For assay [12], the system named is NCI-H23 lung.
In assay [13] the test system is OVCAR-8 ovarian.
The test system of assay [14] is SF-268 CNS.
The subject of assay [15] is SF-539 CNS.
In assay [16] the test system is SK-MEL-5 melanoma.
The test system of assay [17] is SNB-19 CNS.
For assay [18], the system named is SW-620 colon.
Assay [19] relates to UO-31 renal.

With `N#CSCC(Cl)=CCl` (mixture of isomers), the TGI in assay [1], in [2], in assay [3], in assay [4], in assay [5] and in assay [6] was over 100 µM each time. The TGI in assay [7] was over 100 µM; in assay [8], over 100 µM; in assay [9], 71.7 µM; in [10] it was over 100 µM; in assay [11] it was over 100 µM; in [12], over 100 µM. Moreover, the TGI in assay [13], in assay [14], in assay [15], in assay [16], in assay [17] and in assay [18] was over 100 µM in each case. In assay [19], this compound gave a TGI of over 100 µM.
For the compound `COc1ccc(-c2c(C(C)=O)c(-c3ccccc3)n(C3OC(CO)C(O)C(O)C3O)c(=S)c2C#N)cc1` (stereo not drawn), the TGI in assay [1], in assay [2], in [3], in assay [4], in assay [5] and in assay [6] was over 100 µM each time. Besides, the TGI in assay [7], in [8], in assay [9], in assay [10], in [11] and in assay [12] was over 100 µM throughout. Also, the TGI in assay [13], in assay [14], in assay [15], in [16], in assay [17] and in assay [18] was over 100 µM in each case. The compound also gave a TGI in assay [19] of over 100 µM.
As to `O=C(O)CO[C@@]12C#C/C=C\C#C[C@@H]3N(C(=O)Oc4ccccc4)c4ccccc4[C@]14O[C@@]34CCC2`, the TGI in assay [1] is over 100 µM; in [2] it was 46.8 µM; in assay [3], 28.7 µM; in assay [4], over 100 µM; in assay [5], over 100 µM; in assay [6], over 100 µM. Besides, the TGI in assay [7] was over 100 µM; in [8], 60.3 µM; in [9], over 100 µM; in assay [10] it was over 100 µM; in [11], 34.5 µM; in assay [12], over 100 µM. In addition, the TGI in assay [13] was over 100 µM; in assay [14], 85.2 µM; in [15] it was over 100 µM; in assay [16] it was over 100 µM; in assay [17] it was over 100 µM; in assay [18], over 100 µM. Further, the TGI in [19] was 90 µM.
With `Cc1ccc(C(=O)O)c(/C=C2\Cc3ccc(C)cc3C2=O)c1`, the TGI in assay [1] is over 100 µM; in assay [2], over 100 µM; in [3] it was over 100 µM; in [4], over 100 µM; in [5] it was 98.6 µM; in assay [6], over 100 µM. Further, the TGI in [7], in [8], in [9], in assay [10], in assay [11] and in [12] was over 100 µM each time. Besides, the TGI in [13] is over 100 µM; in [14], over 100 µM; in [15], 49.3 µM; in assay [16], over 100 µM; in assay [17] it was over 100 µM; in [18], over 100 µM. This compound also returned a TGI in [19] of over 100 µM.
For `COc1ccc(Cn2c(=O)c(OC)c(C)c3cc4ccccc4cc32)cc1`, the TGI in [1] was over 100 µM; in assay [2], 40.2 µM; in assay [3] it was 63.5 µM; in assay [4], 43 µM; in assay [5], 46 µM; in [6], over 100 µM. Besides, the TGI in assay [7] is 57 µM; in assay [8] it was over 100 µM; in [9], 41.7 µM; in assay [10], over 100 µM; in assay [11] it was over 100 µM; in assay [12], 77.5 µM. For the same compound, the TGI in assay [13] is over 100 µM; in assay [14] it was over 100 µM; in [15] it was over 100 µM; in assay [16], 22.2 µM; in assay [17] it was over 100 µM; in [18] it was over 100 µM. Besides, the TGI in assay [19] is over 100 µM.
As for `Cc1cc(C)nc(NS(=O)(=O)c2ccc(Nc3c4ccccc4nc4ccc(C(=O)Nc5ccc(S(N)(=O)=O)cc5)cc34)cc2)n1`, the TGI in assay [1], in [2], in [3], in [4], in [5] and in assay [6] was over 100 µM in each case. Besides, the TGI in [7], in [8], in assay [9], in assay [10], in assay [11] and in assay [12] was over 100 µM each time. For the same compound, the TGI in assay [13], in assay [14], in assay [15], in assay [16], in assay [17] and in [18] was over 100 µM throughout. The TGI in assay [19] was over 100 µM.
In the case of `COc1cc2c(cc1OCCCCCCCCCCN1C(=O)c3cccc4cccc(c34)C1=O)N=C[C@@H]1CCCN1C2=O`, the TGI in assay [1] was 55.9 µM; in assay [2], 15.9 µM; in assay [3], 27.5 µM; in [4] it was over 100 µM; in assay [5], 43.2 µM; in assay [6], over 100 µM. Moreover, the TGI in [7] amounted to 18.4 µM; in [8] it was 50.2 µM; in [9], 4.99 µM; in assay [10], 54.6 µM; in [11], 30 µM; in assay [12], 22.4 µM. Besides, the TGI in assay [13] came out at 24.7 µM; in assay [14], 37.3 µM; in assay [15] it was 3.21 µM; in assay [16], 22.8 µM; in assay [17], 57.6 µM; in assay [18] it was 19 µM. In [19], this compound had a TGI of 28.5 µM.
